Experimental data taken from the supplement of paper PMC10307832.

Key:
Experiment in all cases: relative viability (nuclei count vs DMSO), 5 days (fraction); higher = more cells survive
NCI-H2126 = system: NCI-H2126
Summary of the method: (§1)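 One day after seeding in 1536-well plates, lung cancer cell lines were dosed by pin tool. Dosing was either single-drug or a fixed anchor-drug dose plus five library-drug doses (not always all listed) in √10 steps. After 5 days, nuclei were stained in one fix-and-stain step and counted on 4× images, and relative viability is the nuclei count of treated wells over that of vehicle wells, given as the median of duplicate plates.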

NCI-H1993 = system: NCI-H1993
Summary of the method: as §1

NCI-H2342 = system: NCI-H2342
Summary of the method: as §1

NCI-H2228 = system: NCI-H2228
Summary of the method: as §1

NCI-H2170 = system: NCI-H2170
Summary of the method: as §1

SK-LU-1 = system: SK-LU-1
Summary of the method: as §1

ChaGo-K-1 = system: ChaGo-K-1
Summary of the method: as §1

EPLC-272H = system: EPLC-272H
Summary of the method: as §1

NCI-H2405 = system: NCI-H2405
Summary of the method: as §1

NCI-H1975 = system: NCI-H1975
Summary of the method: as §1

LCLC-103H = system: LCLC-103H
Summary of the method: as §1

NCI-H460 = system: NCI-H460
Summary of the method: as §1

EMC-BAC-2 = system: EMC-BAC-2
Summary of the method: as §1

LCLC-97TM1 = system: LCLC-97TM1
Summary of the method: as §1

NCI-H1395 = system: NCI-H1395
Summary of the method: as §1

HOP-62 = system: HOP-62
Summary of the method: as §1

NCI-H647 = system: NCI-H647
Summary of the method: as §1

NCI-H322M = system: NCI-H322M
Summary of the method: as §1

NCI-H3122 = system: NCI-H3122
Summary of the method: as §1

NCI-H2085 = system: NCI-H2085
Summary of the method: as §1

LOU-NH91 = system: LOU-NH91
Summary of the method: as §1

NCI-H520 = system: NCI-H520
Summary of the method: as §1

HCC-44 = system: HCC-44
Summary of the method: as §1

Oc1nc(-c2ccc(C(F)(F)F)cc2)nc2c1CSCC2 [XAV939] + CC(=O)c1c(C)c2cnc(Nc3ccc(N4CCNCC4)cn3)nc2n(C2CCCC2)c1=O [Palbociclib] (partner 0.5 µM) was tested, and the relative viability (NCI-H2126; first compound 0.08 µM) was 0.301, the relative viability (NCI-H2126; first compound 0.253 µM) was 0.352 and the relative viability (NCI-H2126; first compound 0.8 µM) was 0.35. For the same compound, the relative viability (NCI-H2126; first compound 2.53 µM) was 0.336, the relative viability (NCI-H1993; first compound 0.08 µM) was 0.617 and the relative viability (NCI-H1993; first compound 0.253 µM) was 0.474. The relative viability (NCI-H1993; first compound 0.8 µM) was 0.469, the relative viability (NCI-H1993; first compound 2.53 µM) was 0.5 and the relative viability (NCI-H2342; first compound 0.08 µM) was 0.555. It also gave a relative viability (NCI-H2342; first compound 0.253 µM) of 0.464, a relative viability (NCI-H2342; first compound 0.8 µM) of 0.468 and a relative viability (NCI-H2342; first compound 2.53 µM) of 0.467. It also gave a relative viability (NCI-H2228; first compound 0.08 µM) of 0.971, a relative viability (NCI-H2228; first compound 0.253 µM) of 0.613 and a relative viability (NCI-H2228; first compound 0.8 µM) of 0.664. For the same compound, the relative viability (NCI-H2228; first compound 2.53 µM) was 0.657, the relative viability (NCI-H2170; first compound 0.08 µM) was 0.41 and the relative viability (NCI-H2170; first compound 0.253 µM) was 0.263. It also gave a relative viability (NCI-H2170; first compound 0.8 µM) of 0.436, a relative viability (NCI-H2170; first compound 2.53 µM) of 0.322 and a relative viability (SK-LU-1; first compound 0.08 µM) of 0.387. For the same compound, the relative viability (SK-LU-1; first compound 0.253 µM) was 0.335, the relative viability (SK-LU-1; first compound 0.8 µM) was 0.396 and the relative viability (SK-LU-1; first compound 2.53 µM) was 0.394. It also gave a relative viability (ChaGo-K-1; first compound 0.08 µM) of 0.99, a relative viability (ChaGo-K-1; first compound 0.253 µM) of 0.925 and a relative viability (ChaGo-K-1; first compound 0.8 µM) of 0.915. For the same compound, the relative viability (ChaGo-K-1; first compound 2.53 µM) was 0.887, the relative viability (EPLC-272H; first compound 0.08 µM) was 0.342 and the relative viability (EPLC-272H; first compound 0.253 µM) was 0.251. The relative viability (EPLC-272H; first compound 0.8 µM) was 0.305, the relative viability (EPLC-272H; first compound 2.53 µM) was 0.332 and the relative viability (NCI-H2405; first compound 0.08 µM) was 0.554. The relative viability (NCI-H2405; first compound 0.253 µM) was 0.513, the relative viability (NCI-H2405; first compound 0.8 µM) was 0.492 and the relative viability (NCI-H2405; first compound 2.53 µM) was 0.386. It also gave a relative viability (NCI-H1975; first compound 0.08 µM) of 0.54, a relative viability (NCI-H1975; first compound 0.253 µM) of 0.483 and a relative viability (NCI-H1975; first compound 0.8 µM) of 0.618. The relative viability (NCI-H1975; first compound 2.53 µM) was 0.508, the relative viability (LCLC-103H; first compound 0.08 µM) was 0.53 and the relative viability (LCLC-103H; first compound 0.253 µM) was 0.499. It also gave a relative viability (LCLC-103H; first compound 0.8 µM) of 0.514, a relative viability (LCLC-103H; first compound 2.53 µM) of 0.449 and a relative viability (NCI-H460; first compound 0.08 µM) of 0.223. It also gave a relative viability (NCI-H460; first compound 0.253 µM) of 0.177, a relative viability (NCI-H460; first compound 0.8 µM) of 0.12 and a relative viability (NCI-H460; first compound 2.53 µM) of 0.0927. It also gave a relative viability (EMC-BAC-2; first compound 0.08 µM) of 0.555, a relative viability (EMC-BAC-2; first compound 0.253 µM) of 0.491 and a relative viability (EMC-BAC-2; first compound 0.8 µM) of 0.478. It also gave a relative viability (EMC-BAC-2; first compound 2.53 µM) of 0.338, a relative viability (LCLC-97TM1; first compound 0.08 µM) of 0.237 and a relative viability (LCLC-97TM1; first compound 0.253 µM) of 0.204. For the same compound, the relative viability (LCLC-97TM1; first compound 2.53 µM) was 0.232, the relative viability (NCI-H1395; first compound 0.08 µM) was 0.644 and the relative viability (NCI-H1395; first compound 0.253 µM) was 0.575. The relative viability (NCI-H1395; first compound 0.8 µM) was 0.569, the relative viability (NCI-H1395; first compound 2.53 µM) was 0.568 and the relative viability (HOP-62; first compound 0.08 µM) was 0.467. For the same compound, the relative viability (HOP-62; first compound 0.253 µM) was 0.4, the relative viability (HOP-62; first compound 0.8 µM) was 0.378 and the relative viability (HOP-62; first compound 2.53 µM) was 0.313. For the same compound, the relative viability (NCI-H647; first compound 0.08 µM) was 0.406, the relative viability (NCI-H647; first compound 0.253 µM) was 0.298 and the relative viability (NCI-H647; first compound 0.8 µM) was 0.277. It also gave a relative viability (NCI-H647; first compound 2.53 µM) of 0.293, a relative viability (NCI-H322M; first compound 0.08 µM) of 0.521 and a relative viability (NCI-H322M; first compound 0.253 µM) of 0.464. For the same compound, the relative viability (NCI-H322M; first compound 0.8 µM) was 0.456, the relative viability (NCI-H322M; first compound 2.53 µM) was 0.433 and the relative viability (NCI-H3122; first compound 0.08 µM) was 0.2. For the same compound, the relative viability (NCI-H3122; first compound 0.253 µM) was 0.196, the relative viability (NCI-H3122; first compound 0.8 µM) was 0.184 and the relative viability (NCI-H3122; first compound 2.53 µM) was 0.153. For the same compound, the relative viability (NCI-H2085; first compound 0.08 µM) was 0.489, the relative viability (NCI-H2085; first compound 0.253 µM) was 0.435 and the relative viability (NCI-H2085; first compound 0.8 µM) was 0.491. It also gave a relative viability (NCI-H2085; first compound 2.53 µM) of 0.451, a relative viability (LOU-NH91; first compound 0.08 µM) of 0.609 and a relative viability (LOU-NH91; first compound 0.253 µM) of 0.54. For the same compound, the relative viability (LOU-NH91; first compound 0.8 µM) was 0.54, the relative viability (LOU-NH91; first compound 2.53 µM) was 0.419 and the relative viability (NCI-H520; first compound 0.08 µM) was 0.252. The relative viability (NCI-H520; first compound 0.8 µM) was 0.183, the relative viability (NCI-H520; first compound 2.53 µM) was 0.211 and the relative viability (HCC-44; first compound 0.08 µM) was 0.899. It also gave a relative viability (HCC-44; first compound 0.253 µM) of 0.842, a relative viability (HCC-44; first compound 0.8 µM) of 0.888 and a relative viability (HCC-44; first compound 2.53 µM) of 0.807.
